In US12398154B2, “Azaquinazoline pan-KRas inhibitors” (Mirati Therapeutics, Inc., priority 2020, dated 2025):

Columns and labels:
KRas G12C = KRas G12C (Homo sapiens, UniProt P01116, G12C); assay: biochemical;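 note: binding to KRas assessed by TR-FRET displacement after one hour incubation at room temperature, potency fitted from percent-of-control values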
Method: (§1) The ability of a compound to bind to KRas was measured using a TR-FRET displacement assay. […] After a 60-minute incubation at room temperature, the reaction was measured using a BMG LABTECH CLARIO star Plus via TR-FRET. […] The POC values were fit to a 4-parameter IC50 equation and the IC50 value reported.

KRas G12A = KRas G12A (Homo sapiens, UniProt P01116, G12A); assay: biochemical;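 note: binding to KRas measured by TR-FRET displacement after one hour at room temperature, IC50 from a four-parameter fit of percent-of-control values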
Chain of KRas G12A (P01116 1-169 isoform P01116-2 G12A): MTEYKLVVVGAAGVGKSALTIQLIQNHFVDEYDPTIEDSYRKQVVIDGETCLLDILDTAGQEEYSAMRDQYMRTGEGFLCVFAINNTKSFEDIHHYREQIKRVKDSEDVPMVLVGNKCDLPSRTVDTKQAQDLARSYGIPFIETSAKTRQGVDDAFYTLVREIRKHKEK
Method: as §1

KRas G12S = KRas G12S (Homo sapiens, UniProt P01116, G12S); assay: biochemical;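 note: TR-FRET displacement binding to KRas, read after one hour incubation at room temperature, IC50 from four-parameter fit of percent of control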
Chain of KRas G12S (P01116 1-169 isoform P01116-2 G12S): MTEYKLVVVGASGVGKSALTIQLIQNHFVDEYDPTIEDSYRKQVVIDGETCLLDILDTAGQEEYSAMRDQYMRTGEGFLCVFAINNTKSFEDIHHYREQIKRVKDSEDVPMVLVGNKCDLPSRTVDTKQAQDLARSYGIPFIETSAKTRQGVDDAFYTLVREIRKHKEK
Method: as §1

KRas WT = KRas WT (Homo sapiens, UniProt P01116); assay: biochemical;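 note: binding to KRas read as TR-FRET displacement after a one-hour room-temperature incubation, IC50 derived from percent-of-control values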
Chain of KRas WT (P01116 1-169 isoform P01116-2): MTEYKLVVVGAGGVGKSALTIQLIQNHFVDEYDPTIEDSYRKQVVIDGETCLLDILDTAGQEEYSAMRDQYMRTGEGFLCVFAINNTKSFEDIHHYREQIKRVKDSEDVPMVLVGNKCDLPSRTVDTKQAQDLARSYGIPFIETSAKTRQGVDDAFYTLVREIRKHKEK
Method: as §1

KRas Q61H = biological target: T1, KRas Q61H (Homo sapiens, UniProt P01116, Q61H); assay: KRas binding assay (TR-FRET displacement);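 note: TR-FRET signal read after one hour at room temperature, IC50 derived by four-parameter fitting of percent-of-control values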
T1 construct: Biotinylated KRas (corresponding to amino acids 1-169, produced at Accelegan Inc.); biotin (biotinylated); purchased Accelegan Inc
T1 sequence (P01116 1-169 isoform P01116-2 Q61H): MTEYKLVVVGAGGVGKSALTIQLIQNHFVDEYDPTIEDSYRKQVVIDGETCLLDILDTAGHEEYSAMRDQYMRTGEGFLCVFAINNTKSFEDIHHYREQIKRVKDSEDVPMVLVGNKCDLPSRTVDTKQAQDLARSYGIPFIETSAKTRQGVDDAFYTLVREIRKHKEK
Method: as §1

KRas G12R = KRas G12R (Homo sapiens, UniProt P01116, G12R); assay: biochemical;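 note: TR-FRET displacement assay of compound binding to KRas, read after one hour at room temperature, potency from a four-parameter fit of percent-of-control values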
Chain of KRas G12R (P01116 1-169 isoform P01116-2 G12R): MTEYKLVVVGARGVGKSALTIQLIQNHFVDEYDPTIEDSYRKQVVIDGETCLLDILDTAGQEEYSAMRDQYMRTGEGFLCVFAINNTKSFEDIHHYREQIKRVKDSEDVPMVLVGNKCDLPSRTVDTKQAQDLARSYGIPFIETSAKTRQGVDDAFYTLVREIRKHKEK
Method: as §1

KRas G12D = KRas G12D (Homo sapiens, UniProt P01116, G12D); assay: biochemical;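 note: TR-FRET displacement binding assay on KRas, read after a one-hour incubation at room temperature, IC50 fitted from percent-of-control values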
Chain of KRas G12D (P01116 1-169 isoform P01116-2 G12D): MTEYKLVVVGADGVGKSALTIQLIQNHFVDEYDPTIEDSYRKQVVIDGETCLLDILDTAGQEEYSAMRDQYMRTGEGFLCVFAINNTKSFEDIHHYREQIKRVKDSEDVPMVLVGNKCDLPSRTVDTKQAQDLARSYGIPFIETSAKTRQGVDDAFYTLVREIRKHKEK
Method: as §1

KRas G13D = biological target: T2, KRas G13D (Homo sapiens, UniProt P01116, G13D); assay: KRas binding assay (TR-FRET displacement);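 note: One-hour room temperature incubation before TR-FRET reading, IC50 from a four-parameter curve fit to percent-of-control data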
T2 construct: Biotinylated KRas (corresponding to amino acids 1-169, produced at Accelegan Inc.); biotin (biotinylated); purchased Accelegan Inc
T2 sequence (P01116 1-169 isoform P01116-2 G13D): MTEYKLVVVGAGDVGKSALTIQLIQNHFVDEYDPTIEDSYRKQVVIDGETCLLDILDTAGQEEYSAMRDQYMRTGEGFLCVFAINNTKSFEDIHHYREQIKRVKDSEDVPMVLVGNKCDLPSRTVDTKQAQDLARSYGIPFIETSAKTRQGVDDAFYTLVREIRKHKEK
Method: as §1

KRas G12V = KRas G12V (Homo sapiens, UniProt P01116, G12V); assay: biochemical;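 note: KRas binding measured by TR-FRET displacement at room temperature, IC50 fitted from percent of control values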
Chain of KRas G12V (P01116 1-169 isoform P01116-2 G12V): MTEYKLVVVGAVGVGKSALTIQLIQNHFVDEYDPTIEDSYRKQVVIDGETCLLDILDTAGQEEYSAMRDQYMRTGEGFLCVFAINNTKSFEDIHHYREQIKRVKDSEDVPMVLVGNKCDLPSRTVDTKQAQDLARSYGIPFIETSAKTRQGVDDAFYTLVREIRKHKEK
Method: as §1

Chain of KRas G12C (P01116 1-169 isoform P01116-2 G12C): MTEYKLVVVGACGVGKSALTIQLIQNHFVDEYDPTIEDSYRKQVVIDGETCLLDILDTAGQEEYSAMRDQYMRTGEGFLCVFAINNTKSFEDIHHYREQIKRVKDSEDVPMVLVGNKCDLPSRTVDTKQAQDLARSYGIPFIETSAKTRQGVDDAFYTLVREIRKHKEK

| SMILES | IC50 (KRas G12C) [µM] | IC50 (KRas G12A) [µM] | IC50 (KRas G12S) [µM] | IC50 (KRas WT) [µM] | IC50 (KRas Q61H) [nM] | IC50 (KRas G12R) [µM] | IC50 (KRas G12D) [µM] | IC50 (KRas G13D) [nM] | IC50 (KRas G12V) [µM] |
| --- | --- | --- | --- | --- | --- | --- | --- | --- | --- |
| N#Cc1cccnc1N1CCN(c2nc(OCC34CCCN3CCC4)nc3c(F)c(-c4cccc5cccc(F)c45)ncc23)CC1 [Example 209, 2-(4-(8-fluoro-7-(8-fluoronaphthalen-1-yl)-2-((tetrahydro-1H-pyrrolizin-7a(5H)-yl)methoxy)pyrido[4,3-d]pyrimidin-4-yl)piperazin-1-yl)nicotinonitrile] | 2.52 | 3.7 | 10.1 | 4.96 | 12700 | 1.61 | 63.4 | 13300 | 2.35 |
| Fc1c(-c2cccc3cccc(F)c23)ncc2c(Nc3cnn(-c4ccncc4)c3)nc(OCC34CCCN3CCC4)nc12 [Example 210, 8-fluoro-7-(8-fluoronaphthalen-1-yl)-N-(1-(pyridin-4-yl)-1H-pyrazol-4-yl)-2-((tetrahydro-1H-pyrrolizin-7a(5H)-yl)methoxy)pyrido[4,3-d]pyrimidin-4-amine] | 43.3 | 66.5 | ≥ 100 | ≥ 100 | ≥ 100000 | 37.8 | ≥ 100 | ≥ 100000 | 2.94 |
| Fc1c(-c2cccc3cccc(F)c23)ncc2c(N3CC(c4ccncc4)C3)nc(OCC34CCCN3CCC4)nc12 [Example 213, 8-fluoro-7-(8-fluoronaphthalen-1-yl)-4-(3-(pyridin-4-yl)azetidin-1-yl)-2-((tetrahydro-1H-pyrrolizin-7a(5H)-yl)methoxy)pyrido[4,3-d]pyrimidine] | 4.2 | 6.19 | 7.25 | 16.8 | 17700 | 4.25 | ≥ 100 | 20500 | 5.57 |

More lines, now with the values ahead:

| IC50 (KRas G12C) [µM] | IC50 (KRas G12A) [µM] | IC50 (KRas G12S) [µM] | IC50 (KRas WT) [µM] | IC50 (KRas Q61H) [nM] | IC50 (KRas G12R) [µM] | IC50 (KRas G12D) [µM] | IC50 (KRas G13D) [nM] | IC50 (KRas G12V) [µM] | SMILES |
| --- | --- | --- | --- | --- | --- | --- | --- | --- | --- |
| 0.677 | 1.3 | 2.26 | 4.01 | 7150 | 0.494 | 17.4 | 6250 | 0.824 | Fc1c(-c2cccc3cccc(F)c23)ncc2c(NCc3ccc4nccn4c3)nc(OCC34CCCN3CCC4)nc12 [Example 208, 8-fluoro-7-(8-fluoronaphthalen-1-yl)-N-(imidazo[1,2-a]pyridin-6-ylmethyl)-2-((tetrahydro-1H-pyrrolizin-7a(5H)-yl)methoxy)pyrido[4,3-d]pyrimidin-4-amine] |
| 10.4 | 12.2 | 18.7 | 16.9 | 29800 | 8.03 | ≥ 100 | 20200 | 14.7 | Fc1c(-c2cccc3cccc(F)c23)ncc2c(NCCNc3cccnc3)nc(OCC34CCCN3CCC4)nc12 [Example 211, N1-(8-fluoro-7-(8-fluoronaphthalen-1-yl)-2-((tetrahydro-1H-pyrrolizin-7a(5H)-yl)methoxy)pyrido[4,3-d]pyrimidin-4-yl)-N2-(pyridin-3-yl)ethane-1,2-diamine] |
| 3.12 | 2.83 | 6.45 | 8.36 | 17400 | 0.88 | 15.6 | 10100 | 1.35 | Fc1c(-c2cccc3cccc(F)c23)ncc2c(NCCc3c[nH]c4ncccc34)nc(OCC34CCCN3CCC4)nc12 [Example 212, N-(2-(1H-pyrrolo[2,3-b]pyridin-3-yl)ethyl)-8-fluoro-7-(8-fluoronaphthalen-1-yl)-2-((tetrahydro-1H-pyrrolizin-7a(5H)-yl)methoxy)pyrido[4,3-d]pyrimidin-4-amine] |
| 9.59 | 28.8 | 34.6 | 60 | 81100 | 16.4 | ≥ 100 | 95100 | 12.6 | Fc1c(-c2cccc3cccc(F)c23)ncc2c(NCc3cnn4cccnc34)nc(OCC34CCCN3CCC4)nc12 [Example 214, 8-fluoro-7-(8-fluoronaphthalen-1-yl)-N-(pyrazolo[1,5-a]pyrimidin-3-ylmethyl)-2-((tetrahydro-1H-pyrrolizin-7a(5H)-yl)methoxy)pyrido[4,3-d]pyrimidin-4-amine] |
| 17.8 | 26.1 | 23.5 | 34 | 57500 | 8.95 | ≥ 100 | 47100 | 17 | Fc1c(-c2cccc3cccc(F)c23)ncc2c(NCCc3ccn[nH]3)nc(OCC34CCCN3CCC4)nc12 [Example 215, N-(2-(1H-pyrazol-5-yl)ethyl)-8-fluoro-7-(8-fluoronaphthalen-1-yl)-2-((tetrahydro-1H-pyrrolizin-7a(5H)-yl)methoxy)pyrido[4,3-d]pyrimidin-4-amine] |
